From patent US20250228861A1, “Cancer Treatments Using MTA-Cooperative PRMT5 Inhibitors” (AMGEN INC., priority 2022, published 2025)
Entries after “also recorded” stand apart in the source; their conditions may differ.

Tests used:
[1] = test system: H292 cells; assay: Combination with paclitaxel, CellTiter-Glo viability, Fa and CalcuSyn CI; type: cell-based; conditions: 6 days;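 note: fa derived from raw luminescence, CI computed in CalcuSyn from drug concentrations and Fa, with CI under 0.9 indicating synergism and 0.9 to 1.1 nearly additive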
Protocol: (§1) Cell viability was measured by the CellTiter-Glo Luminescence assay. Raw luminescent values were converted to fraction affected (Fa) with the following equation:
(§2) Synergy analysis was performed using the CalcuSyn software to determine CI scores based on the drug concentrations used and corresponding Fa values.

[2] = test system: A549 cells; assay: as above; type: cell-based; conditions: 6 days
Protocol: as §1, §2

[3] = test system: MIAPACA2T2 cells; assay: Combination with gemcitabine, CellTiter-Glo viability, Fa and CalcuSyn CI; type: cell-based; conditions: 6 days
Protocol: as §1, §2

[4] = test system: MIAPACA2T2 cells; assay: Combination with carboplatin, CellTiter-Glo viability, Fa and CalcuSyn CI; type: cell-based; conditions: 6 days
Protocol: as §1, §2

[5] = test system: MIAPACA2T2 cells; assay: Combination with irinotecan, CellTiter-Glo viability, Fa and CalcuSyn CI; type: cell-based; conditions: 6 days
Protocol: as §1, §2

[6] = test system: PSN1 cells; assay: as above; type: cell-based; conditions: 6 days
Protocol: as §1, §2

[7] = test system: endogenous MTAP-null patient derived xenograft models; assay: MTAP-null patient derived xenograft (PDX) models, tumor growth inhibition; type: in vivo, mice
Source text: Female NOD/SCID mice were implanted with PA5415 (pancreatic tumors) or ES11082 (esophageal tumors). […] Data represent group means±SEM, n=10. for each group.
For each model, 6 Female NOD/SCID mice were implanted with PDX. Mean tumor volumes for each grouping were between 100-200 mm^3.
6 Female NOD/SCID mice were implanted with patient-derived tumor xenograft (PDX) models of pancreatic ovarian, esophageal, melanoma, lung, brain, mixed mullerian or gallbladder cancer. Mean tumor volumes for each grouping were between 100-200 mm^3.

[8] = test system: DOHH-2 endogenous MTAP-null xenografts; conditions: mouse, in vivo, po
Protocol: FIG. 10. […] Female SCID mice were implanted with DOHH-2 or BxPC-3 tumors. […] Data represent group means±SEM, n=10. Terminal DOHH-2 or BxPC-3 tumors were collected for SDMA ELISA analysis. Data represent mean±SD, n=5 for each group. STATS: P values were determined by Linear Mixed-Effects Model with a Dunnett's comparison to control; **p<0.01, ****p<0.0001.
FIG. 11. […] (A-D.) Female SCID mice were implanted with DOHH-2 tumors. […] Mice were dosed orally (p.o.) once a day for ten days. Data represent group means±SEM, n=10. A.) Terminal DOHH-2 tumor volumes. […] C.) Disaggregated tumors were stained for γH2AX, MFI (mean florescent intensity). D.) Cardiac bleeds were performed and analyzed on ADVIA.

[9] = test system: H292 NSCLC xenografts; assay: H292 NSCLC xenografts, combination with chemotherapy; type: in vivo, mice
[10] = test system: H292 cells; assay: Combination with pemetrexed, CellTiter-Glo viability, Fa and CalcuSyn CI; conditions: 6 days;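 note: fa derived from CellTiter-Glo luminescence signal, CI calculated in CalcuSyn from doses and Fa, with 0.9–1.1 nearly additive and smaller values indicating synergism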
Protocol: as §1, §2

[11] = test system: A549 cells; assay: as above; conditions: 6 days
Protocol: as §1, §2

[12] = Compound B 0.2916 μM fixed + Paclitaxel 0.0005 μM
[13] = Compound B 0.2916 μM fixed + Paclitaxel 0.0007 μM
[14] = Compound B 0.2916 μM fixed + Paclitaxel 0.0009 μM
[15] = Compound B 0.2916 μM fixed + Paclitaxel 0.0011 μM
[16] = Compound B 0.2916 μM fixed + Paclitaxel 0.0015 μM
[17] = Compound B 0.2916 μM fixed + Paclitaxel 0.0019 μM
[18] = Compound B 0.2916 μM fixed + Paclitaxel 0.0025 μM
[19] = Compound B 0.1535 μM fixed + Paclitaxel 0.0005 μM
[20] = Compound B 0.1535 μM fixed + Paclitaxel 0.0007 μM
[21] = Compound B 0.1535 μM fixed + Paclitaxel 0.0009 μM
[22] = Compound B 0.1535 μM fixed + Paclitaxel 0.0011 μM
[23] = Compound B 0.1535 μM fixed + Paclitaxel 0.0015 μM
[24] = Compound B 0.1535 μM fixed + Paclitaxel 0.0019 μM
[25] = Compound B 0.1535 μM fixed + Paclitaxel 0.0025 μM
[26] = Compound B 0.2916 μM fixed + Gemcitabine 0.002045 μM
[27] = Compound B 0.1535 μM fixed + Pemetrexed 0.131687 μM
[28] = Compound B 0.1535 μM fixed + Pemetrexed 0.197531 μM
[29] = Compound B 0.1535 μM fixed + Pemetrexed 0.296296 μM
[30] = Compound B 0.1535 μM fixed + Pemetrexed 0.444444 μM
[31] = Compound B 0.1535 μM fixed + Pemetrexed 0.666667 μM
[32] = Compound B 0.1535 μM fixed + Pemetrexed 1 μM
[33] = Compound B 0.1535 μM fixed + Pemetrexed 1.5 μM

## Cc1cc2cc(C(=O)N(Cc3ccc(C(F)(F)F)cn3)[C@@H](C)c3ncccn3)ccc2nc1N [Compound B]
[1]; [12]
  Combination Fa: 0.7127
  Computed CI value: 0.84
[1]; [13]
  Combination Fa: 0.7796
  Computed CI value: 0.758
[1]; [14]
  Combination Fa: 0.8302
  Computed CI value: 0.757
[1]; [15]
  Combination Fa: 0.8932
  Computed CI value: 0.724
[1]; [16]
  Combination Fa: 0.9425
  Computed CI value: 0.697
[1]; [17]
  Combination Fa: 0.9568
  Computed CI value: 0.8
[1]; [18]
  Combination Fa: 0.9674
  Computed CI value: 0.928
[2]; [19]
  Combination Fa: 0.7030
  Computed CI value: 0.545
[2]; [20]
  Combination Fa: 0.7177
  Computed CI value: 0.64
[2]; [21]
  Combination Fa: 0.7578
  Computed CI value: 0.716
[2]; [22]
  Combination Fa: 0.8365
  Computed CI value: 0.745
[2]; [23]
  Combination Fa: 0.9023
  Computed CI value: 0.786
[2]; [24]
  Combination Fa: 0.9387
  Computed CI value: 0.867
[2]; [25]
  Combination Fa: 0.9692
  Computed CI value: 0.898
[3]; Compound B 0.2916 μM fixed + Gemcitabine 0.001461 μM
  Combination Fa: 0.567
[3]; [26]
  Combination Fa: 0.514
  Computed CI value: 1.006
[3]; Compound B 0.2916 μM fixed + Gemcitabine 0.002863 μM
  Computed CI value: 0.823
[3]; Compound B 0.2916 μM fixed + Gemcitabine 0.004009 μM
  Computed CI value: 0.866
[3]; Compound B 0.2916 μM fixed + Gemcitabine 0.005612 μM
  Computed CI value: 0.843
[3]; Compound B 0.2916 μM fixed + Gemcitabine 0.007857 μM
  Computed CI value: 0.895
[3]; Compound B 0.2916 μM fixed + Gemcitabine 0.011 μM
  Computed CI value: 1.007
[4]; Compound B 0.4374 μM fixed + Carboplatin 2.47793 μM
  Combination Fa: 0.653
[4]; Compound B 0.4374 μM fixed + Carboplatin 11.1111 μM
  Computed CI value: 0.269
[5]; Compound B 0.4374 μM fixed + Irinotecan 0.256 μM
  Computed CI value: 0.602
[5]; Compound B 0.4374 μM fixed + Irinotecan […]
  Computed CI value: 0.647
[6]; Compound B 0.0202 μM fixed + Irinotecan 0.088889 μM
  Computed CI value: 0.806
[6]; Compound B 0.0202 μM fixed + Irinotecan 0.133333 μM
  Computed CI value: 0.8
[6]; Compound B 0.0202 μM fixed + Irinotecan 0.2 μM
  Computed CI value: 0.8
[7]; 100 mg/kg orally once daily, majority of PDX models harboring deletion of the MTAP gene, panel of over twenty PDX models
  tumor growth inhibition (TGI): greater than 50%
[7]; PA5415 pancreatic and ES11082 esophageal PDX, p.o. once a day
  anti-tumor growth inhibition: significant anti-tumor growth inhibition
[8]
  anti-tumor activity: significant anti-tumor activity
[8]; 100 mg/kg
  DNA damage response in tumors (γH2AX): increase in the DNA damage response
  cell cycle in tumors (BrdU/DAPI flow cytometry): cell cycle arrest
[9]; 100 mg/kg orally once daily + paclitaxel 20 mg/kg IP
  anti-tumor activity of combination with paclitaxel: significant anti-tumor activity versus either single agent alone; also recorded: significant anti-tumor activity versus paclitaxel or carboplatin alone
[9]; orally once daily + carboplatin 60 mg/kg IP 1×/week
  anti-tumor activity of combination with carboplatin: significant anti-tumor activity versus paclitaxel or carboplatin alone
[10]; [27]
  Combination Fa: 0.6769
  Computed CI value: 0.73
[10]; [28]
  Combination Fa: 0.7032
  Computed CI value: 0.587
[10]; [29]
  Combination Fa: 0.7484
  Computed CI value: 0.401
[10]; [30]
  Combination Fa: 0.7887
  Computed CI value: 0.309
[10]; [31]
  Combination Fa: 0.8438
  Computed CI value: 0.215
[10]; [32]
  Combination Fa: 0.8703
  Computed CI value: 0.216
[10]; [33]
  Combination Fa: 0.8508
  Computed CI value: 0.385
[11]; Compound B 0.1535 μM fixed + Pemetrexed 0.087792 μM
  Combination Fa: 0.6401
[11]; [27]
  Combination Fa: 0.6629
  Computed CI value: 0.936
[11]; [28]
  Combination Fa: 0.6484
  Computed CI value: 1.172
[11]; [29]
  Combination Fa: 0.6761
  Computed CI value: 1.033
[11]; [30]
  Combination Fa: 0.7384
  Computed CI value: 0.639
[11]; [31]
  Combination Fa: 0.8303
  Computed CI value: 0.235
[11]; [32]
  Combination Fa: 0.8717
  Computed CI value: 0.139
